Source: patent publication US10501460B2, “Heterocyclic compounds and uses thereof” (Plexxikon Inc., priority 2013, dated 2019)

Columns and labels:
bromodomain = test: Bromodomain cell assays of Example 40 (at least one of them); type: cell-based; settings: in at least one of the bromodomain cell assays described in Example 40
Source text: (§1) Published bromodomain inhibitors JQ1 and iBET 151 have shown activity in variety of cancer cells such leukemia and lymphoma, multiple myeloma cells, NUT midline carcinoma and glioblastoma cells (Dawson M A et al. 2011; Delmore J E 2011; Chen Z et al. 2013; Filippakopoulos P et al. 2010; Mertz J A et al. 2011; Ott C J et al. 2012). In this study, we test compounds in different cancer cell lines. MV-4-11 and MOLM-13 are AML cell lines harboring a MLL-AF4 and MLL-AF9 translocation, respectively. MM.1S is a multiple myeloma cell line. SK-N-AS, IMR-32 and SK-N-BE(2) are neuroblastoma cell lines. IMR-32 and SK-N-BE(2) cell lines harbor MYCN amplifications. MV-4-11, MM.1S, IMR-32, SK-N-AS and SK-N-BE(2) were obtained from ATCC (IL, USA) and MOLM-13 were purchased from DSMZ (Braunschweig, German). Cells are cultured as recommended by their sources. For growth inhibition studies 3000 cells are seeded in wells of a 96-well plate in 75 μL of culture media. After several hours, growth media containing compounds of formula (I) are added to the wells. Compound at a maximal concentration of 5 mM was serially diluted 1:3 for a total of 8 point titration with DMSO as a control. A 1 μL aliquot of each dilution point is added to 249 μL growth media and 75 μL is added to each well containing cells, providing 10 μM compound at the maximum concentration point. The final concentration of DMSO in all wells is 0.2%. Cells are incubated for 72 hours, and 25 μL of CellTiter Glo Reagent (Promega Ga., USA) is added to each well. Plates are shaken for approximately 10 minutes and chemiluminescent signal is read on Tecan microplate reader. The measured luminescence correlates directly with cell number.
(§2) All data is normalized to the mean of eight DMSO high control wells on each plate. A four parameter curve fit of the following formula was then applied: Y=a+(b−a)/(1+(x/c)^d) Where ‘a’ is the minimum, ‘b’ is the maximum, ‘c’ is the pIC50 and ‘d’ is the Hill slope. […] Myc Reporter Assay
In MV-4-11 cells, BRD2, BRD3 and BRD4 bind to the promoter region of MYC and regulate its transcription (Dawson M A et al. 2011). The literature bromodomain inhibitor iBET 151 could disrupt BRD4 recruitment to the MYC promoter and subsequently downregulate c-myc transcription (Dawson M A et al. 2011). Myc protein is a transcription factor that heterodimerizes with an obligatory partner Max and regulates the transcription of genes important for cell proliferation, differentiation, and apoptosis. This Myc reporter assay is used to monitor the inhibitory effect of compound of formula (I) on Myc dependent gene expression. Effective compounds could have potential therapeutic effects in Myc-driven tumors.
The MV-4-11 Myc reporter cell line is established by infecting MV-4-11 with VSV-g pseudotyped lentivirus expressing the firefly luciferase gene under the control of a minimal (m) CMV promoter and tandem repeats of the E-box transcriptional response element (TRE) (Qiagen IL, USA) and selecting cells in […] Puromycin.
The MV-4-11 Myc reporter cell line is maintained in Iscove's Modified Dulbecco's Medium containing 10% FBS, 1% PenStep and 2.5 μg/ml Puromycin. Cells are incubated at 37° C. in a humidified atmosphere with 5% CO2. 25,000 cells are seeded in 96-well plate in 50 μL of culture media. After several hours, growth media containing 2× compounds are added to the wells. Compound at a maximal concentration of 5 mM is serially diluted 1:3 for a total of 8 point titration. A 1 μl aliquot of each dilution point is added to 249 μl growth media and 50 μl is added to each well containing cells, providing 10 μM compound at the maximum concentration point. DMSO treated cells serve as a high control and 10 μM JQ1 treated cells serve as a low control. Cells are incubated for a further 24 hours and 25 μL of CellTiter-Fluo Reagent (Promega Ga., USA) is added to each well. Plates are shaken for approximately 2 minutes and incubated at 37° C. for 0.5 hour. […]

MV-4-11 = test: Oncology cell growth assay MV-4-11 (CellTiter Glo, 72 hours); type: cell-based; settings: Homo sapiens, MV4-11, 72 h; MV-4-11 cell growth inhibitory activity, 3d
Source text: as §1, §2
The following table provides data indicating the BRD4 biochemical inhibitory activity and MV-4-11 cell growth inhibitory activity for exemplary compounds as described herein.

IC50 (bromodomain)	IC50 (MV-4-11)	SMILES
< 10 µM		Cc1noc(C)c1-c1cnc2c(-c3cnn(C(F)F)c3)cn(CC3(F)CC=C(F)CC3)c2c1 (centres unmarked) [P-0244, 4-[1-[(1,4-difluorocyclohex-3-en-1-yl)methyl]-3-[1-(difluoromethyl)pyrazol-4-yl]pyrrolo[3,2-b]pyridin-6-yl]-3,5-dimethyl-isoxazole]
< 10 µM		Cc1noc(C)c1-c1cnc2c(-c3cnn(C(F)F)c3)cn(CC3(F)CCC4(CC3)OCCO4)c2c1 [P-0241, 4-[3-[1-(difluoromethyl)pyrazol-4-yl]-1-[(8-fluoro-1,4-dioxaspiro[4.5]decan-8-yl)methyl]pyrrolo[3,2-b]pyridin-6-yl]-3,5-dimethyl-isoxazole]
< 10 µM		Cc1noc(C)c1-c1cnc2c(I)cn(CC3(F)CCCCC3)c2c1 [P-0234, 4-[1-[(1-fluorocyclohexyl)methyl]-3-iodo-pyrrolo[3,2-b]pyridin-6-yl]-3,5-dimethyl-isoxazole]
< 10 µM		Cc1noc(C)c1-c1cnc2c(-c3cnn(C4CC4)c3)cn(CC3(F)CCCCC3)c2c1 [P-0236, 4-[3-(1-cyclopropylpyrazol-4-yl)-1-[(1-fluorocyclohexyl)methyl]pyrrolo[3,2-b]pyridin-6-yl]-3,5-dimethyl-isoxazole]
< 10 µM		Cc1noc(C)c1-c1cnc2c(I)c(C(F)(F)F)n(C(C)c3ccccc3)c2c1 (centres unmarked) [P-0245, 4-[3-iodo-1-(1-phenylethyl)-2-(trifluoromethyl)pyrrolo[3,2-b]pyridin-6-yl]-3,5-dimethyl-isoxazole]
< 10 µM		Cc1noc(C)c1-c1cnc2c(-c3cn[nH]c3)cn(CC3(F)CCCCC3)c2c1 [P-0239, 4-[1-[(1-fluorocyclohexyl)methyl]-3-(1H-pyrazol-4-yl)pyrrolo[3,2-b]pyridin-6-yl]-3,5-dimethyl-isoxazole]
< 10 µM		Cc1noc(C)c1-c1cnc2c(I)cn(CC3(F)CCC4(CC3)OCCO4)c2c1 [P-0240, 4-[1-[(8-fluoro-1,4-dioxaspiro[4.5]decan-8-yl)methyl]-3-iodo-pyrrolo[3,2-b]pyridin-6-yl]-3,5-dimethyl-isoxazole]
< 10 µM		[2H]C([2H])(F)C(c1ccccc1)n1cc(-c2cnn(C)c2)c2ncc(-c3c(C)noc3C)cc21 (centres unmarked) [P-0233, 4-[1-(2,2-dideuterio-2-fluoro-1-phenyl-ethyl)-3-(1-methylpyrazol-4-yl)pyrrolo[3,2-b]pyridin-6-yl]-3,5-dimethyl-isoxazole]
< 10 µM		COCCn1cc(-c2cn(CC3(F)CCCCC3)c3cc(-c4c(C)noc4C)cnc23)cn1 [P-0238, 4-[1-[(1-fluorocyclohexyl)methyl]-3-[1-(2-methoxyethyl)pyrazol-4-yl]pyrrolo[3,2-b]pyridin-6-yl]-3,5-dimethyl-isoxazole]
< 10 µM		Cc1noc(C)c1-c1cnc2c(-c3cnn(C(F)F)c3)cn(CC3(F)CCCCC3)c2c1 [P-0235, 4-[3-[1-(difluoromethyl)pyrazol-4-yl]-1-[(1-fluorocyclohexyl)methyl]pyrrolo[3,2-b]pyridin-6-yl]-3,5-dimethyl-isoxazole]
< 10 µM		Cc1noc(C)c1-c1cnc2[nH]ccc2c1 [P-0246, 3,5-dimethyl-4-(1H-pyrrolo[2,3-b]pyridin-5-yl)isoxazole]
< 10 µM		Cc1noc(C)c1-c1cnc2c(-c3cnn(C(F)F)c3)cn(CC3(F)CCC(F)(F)CC3)c2c1 [P-0243, 4-[3-[1-(difluoromethyl)pyrazol-4-yl]-1-[(1,4,4-trifluorocyclohexyl)methyl]pyrrolo[3,2-b]pyridin-6-yl]-3,5-dimethyl-isoxazole]
< 10 µM		Cc1noc(C)c1-c1cnc2c(-c3cnn(C(F)F)c3)cn(CC3(F)CCC(=O)CC3)c2c1 [P-0242, 4-[[3-[1-(difluoromethyl)pyrazol-4-yl]-6-(3,5-dimethylisoxazol-4-yl)pyrrolo[3,2-b]pyridin-1-yl]methyl]-4-fluoro-cyclohexanone]
< 10 µM		Cc1noc(C)c1-c1cnc2c(-c3cnn(CC(F)(F)F)c3)cn(CC3(F)CCCCC3)c2c1 [P-0237, 4-[1-[(1-fluorocyclohexyl)methyl]-3-[1-(2,2,2-trifluoroethyl)pyrazol-4-yl]pyrrolo[3,2-b]pyridin-6-yl]-3,5-dimethyl-isoxazole]

More lines, now with the values behind:

SMILES	IC50 (bromodomain)	IC50 (MV-4-11)
Cc1noc(C)c1-c1ccc2c(-c3cnn(C)c3)cn(Cc3c(F)cccc3F)c2c1 [P-0229, 4-[1-[(2,6-difluorophenyl)methyl]-3-(1-methylpyrazol-4-yl)indol-6-yl]-3,5-dimethyl-isoxazole]	< 10 µM	
CCn1cc(-c2cn(S(=O)(=O)c3ccccc3)c3cc(-c4c(C)noc4C)cnc23)cn1 [P-0124, 4-[1-(benzenesulfonyl)-3-(1-ethylpyrazol-4-yl)pyrrolo[3,2-b]pyridin-6-yl]-3,5-dimethyl-isoxazole]		≤ 1 µM
Cc1noc(C)c1-c1cnc2ccn(Cc3ccccc3)c2c1 [P-0162, 4-(1-benzylpyrrolo[3,2-b]pyridin-6-yl)-3,5-dimethyl-isoxazole]		≤ 1 µM
Cc1noc(C)c1-c1ccc2c(-c3cnn(C)c3)cn(C(C)c3ccccc3)c2c1 (centres unmarked) [P-0232, 3,5-dimethyl-4-[3-(1-methylpyrazol-4-yl)-1-(1-phenylethyl)indol-6-yl]isoxazole]	< 10 µM	
Cc1noc(C)c1-c1cnc2c(c1)c(C(O)C1CCC(F)(F)CC1)cn2C (centres unmarked) [P-0101, (4,4-difluorocyclohexyl)-[5-(3,5-dimethylisoxazol-4-yl)-1-methyl-pyrrolo[2,3-b]pyridin-3-yl]methanol]	< 10 µM	
Cc1noc(C)c1-c1cnc2c(-c3cnn(C(F)F)c3)cn(C(C)c3ccccc3)c2c1 (centres unmarked) [P-0177, 4-[3-[1-(difluoromethyl)pyrazol-4-yl]-1-(1-phenylethyl)pyrrolo[3,2-b]pyridin-6-yl]-3,5-dimethyl-isoxazole]		≤ 1 µM
CCc1[nH]c2ncc(-c3c(C)noc3C)cc2c1CC1CCC(F)(F)CC1 [P-0051, 4-[3-[(4,4-difluorocyclohexyl)methyl]-2-ethyl-1H-pyrrolo[2,3-b]pyridin-5-yl]-3,5-dimethyl-isoxazole]	< 10 µM	
Cc1noc(C)c1-c1ccc2c(-c3cnn(C)c3)cn(Cc3ccccc3F)c2c1 [P-0226, 4-[1-[(2-fluorophenyl)methyl]-3-(1-methylpyrazol-4-yl)indol-6-yl]-3,5-dimethyl-isoxazole]	< 10 µM	
Cc1noc(C)c1-c1cnc2c(I)c(C(F)(F)F)[nH]c2c1 [P-0225, 4-[3-iodo-2-(trifluoromethyl)-1H-pyrrolo[3,2-b]pyridin-6-yl]-3,5-dimethyl-isoxazole]	< 10 µM	
Cc1noc(C)c1-c1ccc2c(-c3cnn(C)c3)cn(Cc3ccccc3Cl)c2c1 [P-0227, 4-[1-[(2-chlorophenyl)methyl]-3-(1-methylpyrazol-4-yl)indol-6-yl]-3,5-dimethyl-isoxazole]	< 10 µM	
Cc1noc(C)c1-c1cnc2ccn(S(=O)(=O)N3CCCCC3)c2c1 [P-0067, 3,5-dimethyl-4-[1-(1-piperidylsulfonyl)pyrrolo [3,2-b]pyridin-6-yl] isoxazole]	< 10 µM	
Cc1noc(C)c1-c1ccc2c(-c3cnn(C)c3)cn(Cc3ccccc3C(F)(F)F)c2c1 [P-0228, 3,5-dimethyl-4-[3-(1-methylpyrazol-4-yl)-1-[[2-(trifluoromethyl)phenyl]methyl]indol-6-yl]isoxazole]	< 10 µM	
